A short description of assay [1]: (§1) against A against n against t against i against p against r against o against l against i against f against e against r against a against t against i against v against e against a against c against t against i against v against i against t against y against a against g against a against i against n against s against t against h against u against m against a against n against K against 5 against 6 against 2 against c against e against l against l against s against a against s against s against e against s against s against e against d against a against s against r against e against d against u against c against t against i against o against n against i against n against c against e against l against l against v against i against a against b against i against l against i against t against y against m against e against a against s against u against r against e against d against a against f against t against e against r against 7 against 2 against h against r against s against b against y against M against T against T against a against s against s against a against y against. Type of assay: functional, tissue-based, Homo sapiens. The conditions noted are these: k562.

Another assay relates to HepG2. The experiment in a line: Antiproliferative against human HepG2 cells assessed as reduction in cell viability measured after 72 hrs by MTT assay. Type of assay: functional, cell-based. The conditions noted are these: HepG2, 72 h. Background: Tetrazolium dyes change colour on reduction, which living cells bring about.
Assay [2] can be described thus: as §1, with “n against H against C” for “n against K against 5”, “H against C against T” for “K against 5 against 6”, “C against T against -” for “5 against 6 against 2”, “T against - against 8 against c” for “6 against 2 against c”. The format is functional, tissue-based, Homo sapiens. Particulars: hct-8.
Assay [3] is described as follows: against A against n against t against i against p against r against o against l against i against f against e against r against a against t against i against v against e against a against c against t against i against v against i against t against y against a against g against a against i against n against s against t against h against u against m against a against n against M against D against A against - against M against B against - against 2 against 3 against 1 against c against e against l against l against s against a against s against s against e against s against s against e against d against a against s against r against e against d against u against c against t against i against o against n against i against n against c against e against l against l against v against i against a against b against i against l against i against t against y against m against e against a against s against u against r against e against d against a against f against t against e against r against 7 against 2 against h against r against s against b against y against M against T against T against a against s against s against a against y against. Type of assay: functional, tissue-based, Homo sapiens. Particulars: mda-mb-231.

Assay [4] is described as follows: against C against y against t against o against t against o against x against i against c against i against t against y against a against g against a against i against n against s against t against h against u against m against a against n against H against F against L against - against 1 against c against e against l against l against s against a against s against s against e against s against s against e against d against a against s against r against e against d against u against c against t against i against o against n against i against n against c against e against l against l against v against i against a against b against i against l against i against t against y against m against e against a against s against u against r against e against d against a against f against t against e against r against 7 against 2 against h against r against s against b against y against M against T against T against a against s against s against a against y against. The format is ADME, tissue-based. The conditions noted are these: Homo sapiens, HFL1.

A short description of assay [5]: Inhibition of porcine brain tubulin polymerization assessed as inhibition of microtubule assembly by measuring decrease in absorbance measured for 60 mins by fluorescence based analysis. Type of assay: tissue-based, Sus scrofa.
The species named for assay [6] is Sus scrofa. The experiment in a line: Displacement of [3H]colchicine from porcine brain tubulin at 1 uM incubated for 2 hrs by TopCount scintillation counting method relative to control. The format is tissue-based.
The species entered for assay [7] is Sus scrofa. The experiment in a line: Displacement of [3H]colchicine from porcine brain tubulin at 5 uM incubated for 2 hrs by TopCount scintillation counting method relative to control. The format is tissue-based. (In general: Loss of bound radioactivity is the signal in a displacement assay; it reports binding, not function.)
Assay [8] concerns H22. As to the kind of experiment: Anti-tumor activity against mouse H22 cells allografted in ICR mice assessed as reduction in tumor weight at 30 mg/kg, iv administered daily for 21 days. The format is functional. Particulars: 504 h, time 21 day.
Assay [9] deals with H22. The experiment in a line: Anti-tumor activity against mouse H22 cells allografted in ICR mice assessed as reduction in tumor weight at 15 mg/kg, iv administered daily for 21 days. The format is functional. The conditions noted are these: 504 h, time 21 day.
For assay [10], the system named is K562. As to the kind of experiment: Induction of cell cycle arrest in human K562 cells assessed as accumulation at G1 phase at 3 nM incubated for 48 hrs by propidium iodide/RNase staining based flow cytometry (reference value: 38.75%). The format is functional. In general terms: In flow cytometry, cells or beads pass a laser one at a time.
The subject of assay [11] is K562. The experiment in a line: Induction of cell cycle arrest in human K562 cells assessed as accumulation at S phase at 3 nM incubated for 48 hrs by propidium iodide/RNase staining based flow cytometry (reference value: 53.42%). The format is functional.
Assay [12] relates to K562. The experiment in a line: Induction of cell cycle arrest in human K562 cells assessed as accumulation at G2/M phase at 3 nM incubated for 48 hrs by propidium iodide/RNase staining based flow cytometry (reference value: 7.83%). Type of assay: functional.
The test system of assay [13] is K562. As to the kind of experiment: Induction of cell cycle arrest in human K562 cells assessed as accumulation at G1 phase at 6 nM incubated for 48 hrs by propidium iodide/RNase staining based flow cytometry (reference value: 38.75%). The format is functional.
The subject of assay [14] is K562. The experiment in a line: Induction of cell cycle arrest in human K562 cells assessed as accumulation at S phase at 6 nM incubated for 48 hrs by propidium iodide/RNase staining based flow cytometry (reference value: 53.42%). Type of assay: functional.
The subject of assay [15] is K562. As to the kind of experiment: Induction of cell cycle arrest in human K562 cells assessed as accumulation at G2/M phase at 6 nM incubated for 48 hrs by propidium iodide/RNase staining based flow cytometry (reference value: 7.83%). Type of assay: functional.
For assay [16], the system named is K562. The experiment in a line: Induction of cell cycle arrest in human K562 cells assessed as accumulation at G1 phase at 12 nM incubated for 48 hrs by propidium iodide/RNase staining based flow cytometry (reference value: 38.75%). Type of assay: functional.
The subject of assay [17] is K562. As to the kind of experiment: Induction of cell cycle arrest in human K562 cells assessed as accumulation at S phase at 12 nM incubated for 48 hrs by propidium iodide/RNase staining based flow cytometry (reference value: 53.42%). The format is functional.
The subject of assay [18] is K562. As to the kind of experiment: Induction of cell cycle arrest in human K562 cells assessed as accumulation at G2/M phase at 12 nM incubated for 48 hrs by propidium iodide/RNase staining based flow cytometry (reference value: 7.83%). Type of assay: functional.
Assay [19] concerns H22. As to the kind of experiment: Antiproliferative activity against mouse H22 cells assessed as inhibition of cell growth by MTT assay. Type of assay: functional, cell-based.
For assay [20], the system named is H22. As to the kind of experiment: Anti-tumor activity against mouse H22 cells allografted in ICR mice assessed as reduction in tumor weight at 6 mg/kg, iv administered every 2 days for 21 days. Particulars: 504 h, time 21 day. The format is functional.
Assay [21] is filed under the species Sus scrofa. As to the kind of experiment: Induction of porcine brain tubulin polymerization assessed as induction of microtubule assembly by measuring increase in absorbance at 10 uM measured for 60 mins by fluorescence based analysis. Type of assay: tissue-based.

This note sets out measurements from ChEMBL document CHEMBL4765299 (Eur J Med Chem, 2020).

Broadly, the IC50 is the concentration that inhibits the measured activity by half. What is called inhibition is the share of the control response that was lost under treatment. Lower therefore signals a response near the control. Broadly, the inhibition in vivo is the drop in the measured response relative to a control, in per cent.

Active and inactive are the calls of the source. No cut-off for these calls is given here.

As to `C=C(c1ccc(OC)c(O)c1)c1cc(OC)c(OC)c(OC)c1`, the IC50 in assay [1] amounted to 6 nM; with HepG2 it was 10 nM; in [2], 10 nM; in assay [3] it was 12 nM; in assay [4], 86 nM; in assay [5], 2370 nM. Moreover, in the assay on H22 [19], the IC50 worked out at 8 nM. Further, the inhibition in the assay filed under Sus scrofa [6] was determined as 74%; in the assay listed under Sus scrofa [7], 84.6%. Also, the inhibition in vivo at 30 mg/kg/day in the assay on H22 [8] is 66.9%. For the same compound, in the assay on H22 [9], the inhibition in vivo at 15 mg/kg/day came to 56.6%. For the same compound, the Activity with K562 [10] is reported as 37.19%; in the assay on K562 [11], 51.37%; in the assay on K562 [12], 11.45%; in the assay with K562 [13] it was 38.07%; in the assay with K562 [14], 48.36%; in the assay with K562 [15] it was 13.57%. Moreover, the Activity in the assay on K562 [16] was 36.01%; with K562 [17], 45.55%; in the assay on K562 [18] it was 18.44%.

In the case of `C=C(c1cc(OC)nc(OC)c1)c1cn(C)c2ccccc12`, the IC50 in [1] is above 1000 nM.

For `C=C(c1cc(N2CCCC2)nc(N2CCCC2)c1)c1ccc(OC)c(O)c1`, in [1], the IC50 was above 1000 nM.

The compound `C=C(c1cc(OC)nc(OC)c1)c1c[nH]c2ccccc12` gave an IC50 in assay [1] above 1000 nM.

Consider `C=C(c1cc(N2CCOCC2)nc(N2CCOCC2)c1)c1ccc(OC)c(O)c1`, for which the IC50 in assay [1] was above 1000 nM.

Take `C=C(c1cc(C)nc(C)c1)c1ccc(OC)c(O)c1`: the IC50 came out at 12 nM in [1]; 27 nM in the assay on HepG2; 31 nM in assay [2]; 29 nM in [3]; 86 nM in assay [4].

`C=C(c1cc(OC)nc(OC)c1)c1c[nH]c2cc(OC)ccc12` yielded an IC50 in [1] above 1000 nM.

Compound `C=C(c1cc(OC)nc(OC)c1)c1ccc2c(c1)OCO2` yielded an IC50 in [1] above 1000 nM.

`C=C(c1cc(C)nc(C)c1)c1ccc2c(ccn2C)c1`: the IC50 in assay [1] is 21 nM; in the assay with HepG2, 30 nM; in [2], 31 nM; in assay [3], 34 nM; in assay [4], 176 nM.

`C=C(c1cc(Cl)nc(N(C)C)c1)c1ccc(OC)c(O)c1`: the IC50 in assay [1] was 16 nM; in the assay on HepG2 it was 27 nM; in [2] it was 29 nM; in assay [3], 29 nM; in assay [4], 114 nM.

`C=C(c1cc(OC)nc(OC)c1)c1cccc2c1ccn2C` returned an IC50 in assay [1] above 1000 nM.

As for `C=C(c1ccncc1)c1ccc(OC)c(O)c1`, the IC50 in assay [1] was found to be 151 nM; with HepG2, 261 nM; in assay [2] it was 222 nM; in assay [3] it was 208 nM; in assay [4] it was 696 nM.

With `C=C(c1cc(OC)nc(OC)c1)c1cn(C)c2cc(OC)ccc12`, the 50% inhibitory concentration (IC50) in assay [1] was above 1000 nM.

In the case of `C=C(c1cc(OC)nc(OC)c1)c1ccc2c(ccn2C)c1`, the IC50 in assay [1] was found to be 181 nM; with HepG2, 300 nM; in assay [2], 288 nM; in assay [3], 308 nM; in [4], 879 nM.

For the compound `C=C(c1cc(Cl)nc(N2CCNCC2)c1)c1ccc(OC)c(O)c1`, the IC50 in [1] is above 1000 nM.

Regarding `C=C(c1cc(OC)nc(OC)c1)c1ccc(OC)c(OC)c1`, the IC50 in [1] was above 1000 nM.

With `C=C(c1cc(OC)nc(OC)c1)c1ccc2[nH]ccc2c1`, the IC50 in assay [1] was above 1000 nM.

`C=C(c1cc(OC)nc(OC)c1)c1cc(OC)c(OC)c(OC)c1`: the half-maximal inhibitory concentration (IC50) in assay [1] is above 1000 nM.

Take `C=C(c1cc(OC)nc(OC)c1)c1ccc(OC)c(O)c1`: the IC50 came out at 44 nM in [1]; 77 nM in the assay on HepG2; 86 nM in [2]; 84 nM in assay [3]; 792 nM in [4].

The compound `C=C(c1cc(OC)nc(OC)c1)c1cccc2[nH]ccc12` gave an IC50 in assay [1] above 1000 nM.

Turning to `CC(=O)O[C@H]1C(=O)[C@@]2(C)[C@H]([C@H](OC(=O)c3ccccc3)[C@]3(O)C[C@H](OC(=O)[C@H](O)[C@@H](NC(=O)c4ccccc4)c4ccccc4)C(C)=C1C3(C)C)[C@]1(OC(C)=O)CO[C@@H]1C[C@@H]2O` [PACLITAXEL], the inhibition in vivo at 6 mg/kg in the assay on H22 [20] turned out to be 64.3%. Also, the outcome in the assay listed under Sus scrofa [21] was Active. Moreover, the IC50 in the assay with H22 [19] turned out to be 84 nM.

`C=C(c1ccnc(C)c1)c1ccc(OC)c(O)c1`: the IC50 worked out at 24 nM in assay [1]; 31 nM in the assay with HepG2; 32 nM in assay [2]; 31 nM in [3]; 189 nM in assay [4].
